From PMC10134273 (Cancer Medicine, 2023)
Where two headings read alike, the source gives them in different places.

Assays:
[1] = Phase 1 plasma pharmacokinetics of EVER4010001; format: in vivo, human
Excerpt: (§1) After a screening period of up to 28 days, eligible patients received treatment according to a standard “3+3” dose escalation design. […] Treatment continued until unacceptable toxicity, progressive disease, and/or at the discretion of the Investigator or patient's withdrawal of consent.

[2] = test system: triple positive HCC tumors; conditions: cited from earlier work
[3] = test system: all other kinases (including FGFR1, FGFR2, and FGFR3); conditions: versus FGFR4; cited from earlier work
[4] = DLT observation / MTD and RP2D determination (3+3 dose escalation); format: in vivo
Excerpt: as §1

FGFR4 pathway = experiment: Exploratory biomarkers (total bile acids, C4, circulating FGF19); format: in vivo, human
Method: (§2) Secondary endpoints included PK parameters (e.g., maximum observed concentration [C max] and area under the concentration‐time curve [AUC]). Secondary endpoints included objective response rate (ORR), disease control rate (DCR), and duration of response (DOR) as assessed by investigator per RECIST v1.1. Tumor responses were assessed according to RECIST v1.1; computerized tomography scanning or magnetic resonance imaging was performed every 6 weeks in the first 48 weeks, and every 12 weeks thereafter. Secondary endpoints also included safety and tolerability (adverse events [AEs] as defined by the National Cancer Institute‐Common Terminology Criteria for Adverse Events CTCAE v5.0) and exploratory biomarkers (total bile acids, 7‐α‐hydroxy‐4‐cholesten‐3‐one [C4] and circulating FGF19). Safety follow‐up visit was performed within 30 days (±5 days) and 90 days (±7 days) after the last dose of the study treatment.

[5] = test system: HCC or solid tumors with positive FGFR4 and KLB expression; conditions: cited from earlier work
FGFR4 = test system: FGFR4; set-up: method as in PMID 32930584; conditions: kinase biochemical assays; read-out: half-maximal inhibitory concentration (IC50); cited from earlier work
[6] = Method: as §2
All patients who received at least one dose of the study treatment in the Phase 1 part of the study were included in the safety and efficacy analyses. Dose escalation and MTD assessment were primarily based on DLTs which occurred within the 28‐day observation period. Descriptive statistics were used for demographics, safety, and efficacy data. The number of patients who experienced DLTs (within and outside of the 28‐day DLT assessment period) was tabulated for each dose level. The sample size of patients required for dose escalation were determined based on the ‘3+3’ design and DLTs observed as the trial progressed.

[7] = Cycle 1, Day 1, 40 mg BID (N=3) + pembrolizumab
[8] = Cycle 1, Day 1, 60 mg BID (N=3) + pembrolizumab
[9] = Cycle 1, Day 1, 80 mg BID (N=6) + pembrolizumab
[10] = Cycle 1, Day 1, 100 mg BID (N=7) + pembrolizumab
[11] = Cycle 1, Day 8, 40 mg BID (N=3) + pembrolizumab
[12] = Cycle 1, Day 8, 60 mg BID (N=3) + pembrolizumab
[13] = Cycle 1, Day 8, 80 mg BID (N=6) + pembrolizumab
[14] = Cycle 1, Day 8, 100 mg BID (N=7) + pembrolizumab
[15] = most patients treated with 40, 60, 80, and 100 mg
[16] = CFGF401X2101 trial, Grade ≥3 TEAE
[17] = 40 mg BID (N=3) + pembrolizumab
[18] = 60 mg BID (N=3) + pembrolizumab
[19] = 80 mg BID (N=6) + pembrolizumab
[20] = 100 mg BID (N=7) + pembrolizumab

## COCCNc1cc(NC(=O)N2CCCc3cc(CN4CCN(C)CC4=O)c(C=O)nc32)ncc1C#N [EVER4010001, roblitinib]
[1]; [7]
  Geometric mean AUC0–t (geometric CV%): […]
  Mean t1/2 (SD): […]
  Median tmax (Min, Max): […]
[1]; [8]
  Geometric mean AUC0–t (geometric CV%): […]
  Mean t1/2 (SD): […]
  Median tmax (Min, Max): […]
[1]; [9]
  Geometric mean AUC0–t (geometric CV%): […]
  Mean t1/2 (SD): […]
  Median tmax (Min, Max): […]
[1]; [10]
  Mean t1/2 (SD): 4.22 (0.69) Hour
[1]; [11]
  Geometric mean AUC0–t (geometric CV%): […]
  Mean Rac, drug accumulation ratio (SD): […]
  Mean t1/2 (SD): […]
  Median tmax (Min, Max): […]
[1]; [12]
  Geometric mean AUC0–t (geometric CV%): 3212.66 (27.61) Hour·ng/ml
[1]; [13]
  Mean t1/2 (SD): 4.12 (0.90) Hour
[1]; [14]
  Geometric mean AUC0–t (geometric CV%): […]
  Mean Rac, drug accumulation ratio (SD): […]
  Mean t1/2 (SD): […]
  Median tmax (Min, Max): […]
[1]; Cycle 1 Day 8 vs Cycle 1 Day 1
  accumulation ratio (Rac): […]
[1]; after repeated BID dosing, based on T1/2
  steady state reached: […]
[1]; human, plasma, oral, Cycle 1, Day 1, 40 mg BID (N=3) + pembrolizumab, read-out: Geometric mean Cmax (geometric CV%)
  Cmax: […]
[1]; human, plasma, oral, Cycle 1, Day 1, 60 mg BID (N=3) + pembrolizumab, read-out: Geometric mean Cmax (geometric CV%)
  Cmax: […]
[1]; human, plasma, oral, Cycle 1, Day 1, 80 mg BID (N=6) + pembrolizumab, read-out: Geometric mean Cmax (geometric CV%)
  Cmax: 897 ng/mL
[1]; human, plasma, oral, Cycle 1, Day 1, 100 mg BID (N=7) + pembrolizumab, read-out: Geometric mean Cmax (geometric CV%)
  Cmax: […]
[1]; human, plasma, oral, Cycle 1, Day 8, 40 mg BID (N=3) + pembrolizumab, read-out: Geometric mean Cmax (geometric CV%)
  Cmax: […]
[1]; human, plasma, oral, Cycle 1, Day 8, 60 mg BID (N=3) + pembrolizumab, read-out: Geometric mean Cmax (geometric CV%)
  Cmax: 749 ng/mL
[1]; human, plasma, oral, Cycle 1, Day 8, 80 mg BID (N=6) + pembrolizumab, read-out: Geometric mean Cmax (geometric CV%)
  Cmax: […]
[1]; human, plasma, oral, Cycle 1, Day 8, 100 mg BID (N=7) + pembrolizumab, read-out: Geometric mean Cmax (geometric CV%)
  Cmax: […]
[1]; human, plasma, oral, Cycle 1 Day 1, range across dose levels, read-out: geometric mean AUC0–t
  AUC(0-t): […]
[1]; human, plasma, oral, Cycle 1 Day 1, range across dose levels, read-out: geometric mean Cmax
  Cmax: […]
[1]; human, plasma, oral, range across 40-100 mg BID dose levels (abstract), read-out: AUC0–t
  AUC(0-t): […]
[1]; human, plasma, oral, range across 40-100 mg BID dose levels (abstract), read-out: maximum observed concentration (Cmax)
  Cmax: 606 to 1350 ng/mL
[1]; human, plasma, oral, range across 40-100 mg BID dose levels, read-out: Mean plasma terminal half-life (T1/2)
  half-life: […]
[1]; human, plasma, oral, range across 40-100 mg BID dose levels, read-out: Median time to peak concentration (Tmax)
  Tmax: […]
[2]
  antitumor effect in preclinical models: induced regression/stasis
[3]
  selectivity against all other kinases (including FGFR1, FGFR2, and FGFR3): […]
[4]; human, in vivo
  DLTs during whole study: Alanine aminotransferase increased: […]
  DLTs during whole study: Aspartate aminotransferase increased: […]
  Total DLTs during whole study: […]
[4]; human, in vivo, 28 days
  DLTs within 28 days: Alanine aminotransferase increased: […]
  DLTs within 28 days: Aspartate aminotransferase increased: […]
  Total DLTs within 28 days: […]
[4]; in combination with pembrolizumab 200 mg Q3W
  maximum tolerated dose (MTD): […]
FGFR4 pathway; all doses
  serum biomarkers (C4, total bile acid concentration, circulating FGF19) as indicator of pathway suppression: […]
FGFR4 pathway; [15]
  circulating FGF19: […]
  plasma C4 (7-α-hydroxy-4-cholesten-3-one): […]
  total bile acid concentration: […]
[5]; [16]
  increased ALT: […]
  increased AST: […]
[5]; CFGF401X2101 trial, any grade
  increased ALT: 43.8%
[5]; CFGF401X2101 trial
  diarrhea suspected to be related to the study drug: 69%
[5]; QD doses 50-150 mg, fasted or unfasted patients
  recommended Phase 2 dose (RP2D): […]
[5]; RP2D 120 mg FGF401 QD, CFGF401X2101 trial
  geometric mean Cmax (geometric coefficient of variation %): […]
[5]; in combination with spartalizumab 300 mg Q3W
  recommended Phase 2 dose (RP2D): […]
FGFR4
  IC50: […]
[6]; [17]
  Grade 5 TEAEs related to EVER4010001 and/or pembrolizumab: 0 n (%)
  SAEs: Death: 0 n (%)
[6]; [18]
  Grade 5 TEAEs related to EVER4010001 and/or pembrolizumab: 0 n (%)
[6]; [19]
  Grade 5 TEAEs related to EVER4010001 and/or pembrolizumab: 0 n (%)
  SAEs: Death: 0 n (%)
[6]; [20]
  Grade 5 TEAEs related to EVER4010001 and/or pembrolizumab: 0 n (%)
  SAEs: Death: 0 n (%)
[6]; Total (N=19)
  Grade 5 TEAEs related to EVER4010001 and/or pembrolizumab: 0 n (%)
[6]; human, in vivo
  Any TEAE: Alanine aminotransferase increased: 9 (47.4) n (%)
  Any TEAE: Anemia: 9 (47.4) n (%)
[6]; human, in vivo, 93.4 days
  Any TEAE: Anemia: 0 n (%)
